According to ChEMBL document CHEMBL5543174, “A Nonbactericidal Anionic Antimicrobial Peptide Provides Prophylactic and Therapeutic Efficacies against Bacterial Infections in Mice by Immunomodulatory-Antithrombotic Duality” (J Med Chem, 2024):
Calls of active or inactive are those of the source.

Experiments:
Morganella morganii = test: Antimicrobial activity against Morganella morganii ATCC25830 assessed as inhibition of microbial growth at <= 200 ug/ml incubated for 18 hrs by micro-broth dilution method; format: functional, organism-based; conditions: dose <= 200.0 µg/ml
Staphylococcus aureus [1] = test: Antibacterial activity against Methicillin-resistant Staphylococcus aureus infected in C57BL/6 mouse assessed as reduction in bacterial load at 10 mg/kg,ip pre-administrated 5 hrs before bacterial infection; format: functional, organism-based
Escherichia coli [2] = test: Antibacterial activity against Carbapenem-resistant Escherichia coli infected in C57BL/6 mouse assessed as reduction in bacterial load at 10 mg/kg,ip pre-administrated 5 hrs before bacterial infection; format: functional, organism-based
Escherichia coli [3] = test: Antibacterial activity against Escherichia coli ATCC 25922 infected in C57BL/6 mouse assessed as reduction in TNF-alpha level in peritoneal fluid at 10 mg/kg,ip administrated 5 hrs after bacterial infection measured after 24 hrs by ELISA; format: functional, organism-based; conditions: time 19.0 hrs
Escherichia coli [4] = test: Antibacterial activity against Escherichia coli ATCC 25922 infected in C57BL/6 mouse assessed as reduction in IL-1beta level in serum at 10 mg/kg,ip pre-administrated 5 hrs before bacterial infection measured after 24 hrs by ELISA; format: functional, organism-based; conditions: time 29.0 hrs
Staphylococcus aureus [5] = test: Antibacterial activity against Methicillin-resistant Staphylococcus aureus infected in C57BL/6 mouse assessed as reduction in IL-1beta level in serum at 10 mg/kg,ip administrated 5 hrs after bacterial infection measured after 24 hrs by ELISA; format: functional, organism-based; conditions: time 19.0 hrs
Escherichia coli [6] = test: Antibacterial activity against Escherichia coli ATCC 25922 infected in C57BL/6 mouse assessed as reduction in inflammatory injury in lung at 10 mg/kg,ip administrated 5 hrs after bacterial infection measured after 24 hrs by hematoxylin and eosin staining based analysis; format: functional, organism-based; conditions: time 19.0 hrs
Staphylococcus aureus [7] = test: Antibacterial activity against Methicillin-resistant Staphylococcus aureus infected in C57BL/6 mouse assessed as reduction in inflammatory injury in lung at 10 mg/kg,ip administrated 5 hrs after bacterial infection measured after 24 hrs by hematoxylin and eosin staining based analysis; format: functional, organism-based; conditions: time 19.0 hrs
Staphylococcus aureus [8] = test: Antibacterial activity against Methicillin-resistant Staphylococcus aureus infected in C57BL/6 mouse assessed as increase in survival rate at 10 mg/kg,ip pre-administrated 5 hrs before bacterial infection measured after 7 days; format: functional, organism-based; conditions: time 7.0 day
Escherichia coli [9] = test: Antibacterial activity against Carbapenem-resistant Escherichia coli infected in C57BL/6 mouse assessed as increase in survival rate at 10 mg/kg,ip pre-administrated 5 hrs before bacterial infection measured after 7 days; format: functional, organism-based; conditions: time 7.0 day
Escherichia coli [10] = test: Antibacterial activity against Escherichia coli ATCC 25922 infected in C57BL/6 mouse assessed as increase in survival rate at 10 mg/kg,ip administrated 5 hrs after bacterial infection measured after 7 days; format: functional, organism-based; conditions: time 7.0 day
Escherichia coli [11] = test: Antibacterial activity against Carbapenem-resistant Escherichia coli infected in C57BL/6 mouse assessed as increase in survival rate at 10 mg/kg,ip administrated 5 hrs after bacterial infection measured after 7 days; format: functional, organism-based; conditions: time 7.0 day
Mus musculus [12] = test: Immunomodulatory activity in clodronate liposome immunosuppressed C57BL/6 mouse with monocyte depletion model assessed as increase in number of monocyte in peritoneal lavage at 10 mg/kg,ip administration measured after 12 hrs by flow cytometry; format: functional, organism-based
Mus musculus [13] = test: Immunomodulatory activity in clodronate liposome immunosuppressed C57BL/6 mouse with monocyte depletion model assessed as increase in number of monocyte in peritoneal lavage at 10 mg/kg,ip administration measured after 24 hrs by flow cytometry; format: functional, organism-based
[14] = system: Peritoneal macrophage cell; test: Induction of chemotaxis in mouse Peritoneal macrophage assessed as increase in macrophage migration at 25 to 100 ug/ml incubated for 8 hrs by crystal violet staining based direct transwell assay; format: functional, cell-based; conditions: dose 25-100 µg/ml
Peritoneal macrophage [15] = test: Induction of chemotaxis in mouse Peritoneal macrophage assessed as upregulation of MCP-1 gene expression incubated for 6 hrs by qPCR analysis; format: functional, cell-based
Peritoneal macrophage [16] = test: Immunomodulatory activity in mouse Peritoneal macrophage assessed as decrease in LTA-induced TNF-alpha production at 25 to 100 ug/ml incubated for 6 hrs by ELISA; format: functional, cell-based; conditions: dose 25-100 µg/ml
[17] = system: Peritoneal macrophage cell; test: Induction of phagocytosis in mouse Peritoneal macrophage assessed as increase in neutral red dye uptake by measuring optical density absorbance at 50 ug/ml incubated for 24 hrs followed by dye addition measured after 4 hrs by absorbance based assay (reference value: 0.089); format: functional; conditions: dose 50 µg/ml; time 28 hrs
Neutrophil [18] = test: Induction of chemotaxis in mouse bone marrow derived neutrophil assessed as increase in neutrophil migration incubated for 8 hrs in presence of macrophage by crystal violet staining based indirect transwell assay; format: functional, cell-based
Neutrophil [19] = test: Induction of degranulation in mouse bone marrow derived neutrophil assessed as increase in lactoferrin release at 25 to 100 ug/ml incubated for 6 hrs by ELISA; format: functional, cell-based; conditions: dose 25-100 µg/ml
Neutrophil [20] = test: Induction of degranulation in mouse bone marrow derived neutrophil assessed as increase in MMP-9 release at 25 to 100 ug/ml incubated for 6 hrs by ELISA; format: functional, cell-based; conditions: dose 25-100 µg/ml
Neutrophil [21] = test: Induction of ROS production in mouse bone marrow derived neutrophil at 25 to 100 ug/ml incubated for 6 hrs by DCFA-DA staining based flow cytometry; format: functional, cell-based; conditions: dose 25-100 µg/ml
Neutrophil [22] = test: Induction of immune response in mouse bone marrow derived neutrophil assessed as neutrophil extracellular trap formation at 100 ug/ml incubated for 4 hrs by DAPI staining based fluorescence microscopic analysis; format: functional, cell-based; conditions: dose 100.0 µg/ml
Neutrophil [23] = test: Induction of chemotaxis in mouse bone marrow derived neutrophil assessed as increase in neutrophil migration at 100 ug/ml preincubated with MTS510 for 30 mins followed by compound addition measured after 8 hrs by crystal violet staining based indirect transwell assay; format: functional, cell-based; conditions: dose 100.0 µg/ml
Peritoneal macrophage [24] = test: Induction of chemotaxis in mouse Peritoneal macrophage assessed as upregulation of MCP-1 production at 100 ug/ml preincubated with MTS510 followed by compound addition by ELISA; format: functional, cell-based; conditions: dose 100.0 µg/ml
Peritoneal macrophage [25] = test: Immunoregulatory activity in mouse Peritoneal macrophage assessed as upregulation of JNK phosphorylation incubated for 1 hr by Western blotting analysis; format: functional, cell-based
Peritoneal macrophage [26] = test: Immunoregulatory activity in mouse Peritoneal macrophage assessed as change in total ERK expression at 25 to 100 ug/ml incubated for 1 hr by Western blotting analysis; format: functional, cell-based; conditions: dose 25-100 µg/ml
Peritoneal macrophage [27] = test: Immunoregulatory activity in mouse Peritoneal macrophage assessed as change in total JNK expression at 25 to 100 ug/ml incubated for 1 hr by Western blotting analysis; format: functional, cell-based; conditions: dose 25-100 µg/ml
Mus musculus [28] = test: Anticoagulation activity in mouse assessed as change in plasma TFPI expression at 10 mg/kg,ip measured after 24 hrs by ELISA; format: functional, organism-based
Mus musculus [29] = test: Anticoagulation activity in mouse assessed as change in plasma AT-III expression at 10 mg/kg,ip measured after 24 hrs by ELISA; format: functional, organism-based
Escherichia coli [30] = test: Antibacterial activity against Carbapenem-resistant Escherichia coli infected in C57BL/6 mouse with cyclophosphamide-induced neutrophil depletion model assessed as decrease in bacterial burden in peritoneal cavity at 10 mg/kg,ip administrated 5 hrs after bacterial infection measured after 24 hrs; format: functional, organism-based; conditions: time 19.0 hrs
Escherichia coli [31] = test: Antibacterial activity against Carbapenem-resistant Escherichia coli infected in C57BL/6 mouse with clodronate liposome-induced monocyte depletion model assessed as decrease in bacterial burden in peritoneal cavity at 10 mg/kg,ip pre-administrated 5 hrs before bacterial infection measured after 24 hrs; format: functional, organism-based; conditions: time 29.0 hrs

CC[C@H](C)[C@H](NC(=O)[C@@H]1CSSC[C@H](NC(=O)[C@H](CCC(=O)O)NC(=O)[C@@H](NC(=O)[C@H](CCCCN)NC(=O)[C@H](Cc2c[nH]cn2)NC(=O)[C@@H](NC(=O)[C@H](CCCCN)NC(=O)[C@H](CCC(=O)O)NC(=O)[C@H](C)NC(=O)[C@H](CCC(=O)O)NC(=O)[C@H](CCC(=O)O)NC(=O)[C@H](CCC(=O)O)NC(=O)[C@H](C)N)[C@@H](C)O)[C@@H](C)O)C(=O)N[C@@H](CC(C)C)C(=O)N[C@@H](CCC(=O)O)C(=O)N1)C(=O)N[C@@H](Cc1ccccc1)C(=O)N[C@H](C(=O)N[C@@H](CC(C)C)C(=O)N[C@@H](CC(C)C)C(=O)N1CCC[C@H]1C(=O)N1CCC[C@@H]1C(=O)N[C@H](C)C(=O)O)[C@@H](C)O
inactive: Activity (Morganella morganii) | Activity (Mus musculus [13]) | Activity [14] | Activity (Peritoneal macrophage [16]) | Activity (Neutrophil [20]) | Activity (Neutrophil [21]) | Activity (Peritoneal macrophage [26]) | Activity (Peritoneal macrophage [27]) | Activity (Mus musculus [28]) | Activity (Mus musculus [29]) | Activity (Escherichia coli [30]) | Activity (Escherichia coli [31])
0.102: OD [17]
active: Activity (Staphylococcus aureus [1]) | Activity (Escherichia coli [2]) | Activity (Escherichia coli [3]) | Activity (Escherichia coli [4]) | Activity (Staphylococcus aureus [5]) | Activity (Escherichia coli [6]) | Activity (Staphylococcus aureus [7]) | Activity (Staphylococcus aureus [8]) | Activity (Escherichia coli [9]) | Activity (Escherichia coli [10]) | Activity (Escherichia coli [11]) | Activity (Mus musculus [12]) | Activity (Peritoneal macrophage [15]) Dose-Dependent Effect | Activity (Neutrophil [18]) Dose-Dependent Effect | Activity (Neutrophil [19]) | Activity (Neutrophil [22]) | Activity (Neutrophil [23]) | Activity (Peritoneal macrophage [24]) | Activity (Peritoneal macrophage [25]) Dose-Dependent Effect
